What all share (type): cell-based
Assay [1] addresses T1, opossum kidney PTH/PTHrp receptor clone, OK-O (Didelphis virginiana, UniProt P25107, I132F/S86P).
T1 construct: expressed in transfected cells; host or cells: COS cells, transient, plasmid OK-O (pcDNA I)
Nature of the assay: Intracellular free calcium, COS cells expressing OK-O. As to conditions: FIG. 12. On the procedure: Details of the methodology are:
Coverslips plated with COS cells were incubated in Fura-2 AM loading buffer containing, in mM: HEPES (N-[2-Hydroxyethyl]piperazine-N′-[2-ethanesulfonic acid]), 20; CaCl2, 1; KCl 5; NaCl, 145; MgSO4, 0.5; NaHCO3, 25; K2HPO4, 1.4; glucose, 10; and Fura-2 AM 91-(2-5′-carboxyoxazol-2′-yl)-6-aminobenzofuran-5oxy-(2′-amino-5′-methylphenoxy)ethane-N,N,N′,N′-tetraaecetic acid acetomethoxy ester), 0.5; at 37° C. at pH7.4, aerated with 95% air and 5% CO2 for 45 minutes. Cells loaded with Fura-2 AM were then washed with a modified Krebs-Heinseleit (KH) buffer containing, in mM: HEPES, 20; CaCl2, 1; KCl, 5; NaCl, 145; MgSO4, 0.5; Na2HPO4, 1; glucose, 5; pH7.4. To check that cleavage of the ester occurred, the excitation spectra after different times of Fura-2 AM incubation were measured.
To measure fluorescence of individual cells, the cover slips were placed in a microscope tissue chamber (Biophysica Technologies, Inc., MD). The chamber consisted of a shallow, sloped compartment made of Teflon with a silicone rubber seal. The cover slips served as the bottom of the chamber. A heater/cooler ring was encased in the silicone rubber which sealed the coverslip in place.

Assay [2] concerns the target T1, opossum kidney PTH/PTHrp receptor clone, OK-O. Nature of the assay: Inositol phosphate metabolism, COS cells expressing OK-O. The settings on record: FIG. 15, listed as NlePTH.
Assay [3] addresses T2, opossum kidney PTH/PTHrP receptor clone, OK-H (Didelphis virginiana, UniProt P25107, I132F/S86P).
T2 construct: expressed in transfected cells; host or cells: COS cells, transient, plasmid OK-H (pcDNA I)
Kind of assay: cAMP accumulation, COS cells expressing OK-H. The settings on record: FIG. 16. On the procedure:
Intracellular cAMP accumulation was measured as described previously (Abou-Samra et al., J. Biol. Chem. 262:1129, 1986). Cells in 24-well plates were rinsed with culture medium containing 0.1% BSA and 2 mM IBMX. The cells were then incubated with PTH or PTHrP for 15 min. at 37° C. The supernatant was removed and the cells immediately frozen by placing the whole plate in dry ice powder. Intracellular cAMP was extracted by thawing the cells in 1 ml of 50 mM HCl and analyzed by a specific radioimmunoassay using an anti-cAMP antibody (e.g., Sigma, St. Louis, Mo.). A cAMP analog (2′-O-monosuccinyl-adenosine 3′:5′-cyclic monophosphate tyrosyl methyl ester, obtained from Sigma) which was used a tracer for cAMP was iodinated by the chloramine T method. Free iodine was removed by adsorbing the iodinated cAMP analog onto a C18 Sep-pak cartridge (Waters, Milford, Mass.). After washing with dH2O, the iodinated cAMP analog was eluted from the Sep-pak Cartridge with 40% acetonitrille (ACN) and 0.1% trifluoroacetic acid (TFA). The iodinated cAMP analog was lyophilized, reconstituted in 1 ml 0.1% TFA, and injected into a C18 reverse phase HPLC column (Waters). […] The supernatant was removed and the bound radioactivity was counted in a γ-counter (Micromedic). Standard curves were calculated using the four-parameter RIA program supplied by Micromedic. […]
On the technique in general: Cyclic AMP is a second messenger, typically raised through Gs and lowered through Gi signalling.

T1 sequence (P25107 27-585 S86P/I132F): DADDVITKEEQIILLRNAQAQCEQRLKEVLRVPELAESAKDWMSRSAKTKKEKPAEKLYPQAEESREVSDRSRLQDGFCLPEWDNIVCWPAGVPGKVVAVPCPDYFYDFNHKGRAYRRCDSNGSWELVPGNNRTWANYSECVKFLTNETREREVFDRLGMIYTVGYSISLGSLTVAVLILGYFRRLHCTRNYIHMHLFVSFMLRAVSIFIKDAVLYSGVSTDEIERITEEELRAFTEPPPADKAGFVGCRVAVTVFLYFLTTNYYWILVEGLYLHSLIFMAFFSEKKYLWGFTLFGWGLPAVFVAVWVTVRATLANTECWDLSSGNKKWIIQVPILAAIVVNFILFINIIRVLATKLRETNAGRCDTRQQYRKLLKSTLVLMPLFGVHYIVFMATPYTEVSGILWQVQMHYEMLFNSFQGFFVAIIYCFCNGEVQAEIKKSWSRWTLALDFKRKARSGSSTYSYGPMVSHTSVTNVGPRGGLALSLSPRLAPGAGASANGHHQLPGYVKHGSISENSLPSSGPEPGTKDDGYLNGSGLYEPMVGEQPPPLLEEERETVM
T2 sequence (P25107 other isoform, or with tags, fused parts or gaps S86P/I132F): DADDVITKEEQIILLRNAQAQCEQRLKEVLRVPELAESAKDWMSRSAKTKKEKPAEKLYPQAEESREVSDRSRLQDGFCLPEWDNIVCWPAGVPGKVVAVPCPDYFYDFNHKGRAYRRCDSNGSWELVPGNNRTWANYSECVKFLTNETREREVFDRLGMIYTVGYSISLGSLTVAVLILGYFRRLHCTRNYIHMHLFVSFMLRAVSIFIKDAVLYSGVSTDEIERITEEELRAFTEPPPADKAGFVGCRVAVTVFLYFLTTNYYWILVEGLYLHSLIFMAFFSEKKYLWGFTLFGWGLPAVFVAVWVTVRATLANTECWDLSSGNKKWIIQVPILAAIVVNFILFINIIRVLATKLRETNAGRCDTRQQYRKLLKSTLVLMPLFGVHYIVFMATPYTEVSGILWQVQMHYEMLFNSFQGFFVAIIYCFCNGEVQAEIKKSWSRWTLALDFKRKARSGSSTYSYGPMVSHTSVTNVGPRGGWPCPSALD

For [Nle^8,18, Tyr^34]bPTH(1-34)amide, the “increase in intracellular free calcium” value in assay [1] is on record as “increase”. In assay [2], the “inositol phosphate metabolism (IP3 and IP2 accumulation)” value is “rapid increase”. Besides, the cAMP accumulation result in assay [3] was “increase cAMP accumulation”.

The record behind these values is patent US7150974B1, “Parathyroid hormone receptor binding method” (The General Hospital Corporation, priority 1991, dated 2006).
